Measurements published in patent US20120316192A1, “SUBSTITUTED INDOLO [2,3-A] QUINOLIZINES” (priority 2011, published 2012).

Assays:
HT29 cell line = test: Apo-ONE homogeneous caspase-3/7 assay (apoptosis); assay type: cell-based; details: HT29, 42 h of treatment
Method: (§1) HeLa human cervical carcinoma cell line, the human breast cancer cell line MCF7, the African green monkey kidney cell line BS-C-1 and the human colorectal carcinoma cell lines HCT116 and SW480 were maintained in Dulbecco's Modified Eagle's medium (DMEM, PAA, Pasching Austria). The colorectal cell line HT29 was cultured in McCoy's 5A medium (PAA, Pasching, Austria). The prostate carcinoma cells PC3 and the osteosarcoma cells Saos2 were cultured in RPMI medium (PAA, Pasching Austria). All media were supplemented with 10% fetal calf serum, L-glutamine, penicillin and streptomycin. All cell lines were maintained at 37° C. in a 5% CO2 humidified atmosphere.
(§2) Therefore we measured the caspase-3/7 activity in different cell lines with the Apo-ONE® homogeneous caspase-3/7 assay.
(§3) Caspase-3/7 activities were determined using the Apo-ONE® homogeneous caspase-3/7 assay (Promega, Mannheim Germany) according to the manufacturer's protocol. Briefly, cells were plated in quadruplicates in 384-well cell culture plate. After 24 hours cells were exposed for 42 hours to the compounds at different concentrations. Control cells were treated with 0.5% DMSO or staurosporine (STS). Subsequently cells were lysed with a lysis buffer containing the caspase-3/7 substrate Z-DEVD-R110 and were incubated at room temperature until further analysis. The fluorescence was detected with the TECAN Inifinite® M200 plate reader at excitation/emission wavelength 485/520 nm. The blank value was subtracted from each value and the relative caspase-3/7 activity was calculated compared to the DMSO treated cells.
(§4) These findings correlate with our results from the cell viability assays for these indoloquinolizine.

PC3 cell line = test: Apo-ONE homogeneous caspase-3/7 assay (apoptosis); assay type: cell-based; details: PC3, 42 h of treatment
Method: as §1, §2, §3, §4

Saos2 cells = test: Apo-ONE homogeneous caspase-3/7 assay (apoptosis); assay type: cell-based; details: Saos2, 42 h of treatment
Method: as §1, §2, §3, §4

HCT116 cells = test: Apo-ONE homogeneous caspase-3/7 assay (apoptosis); assay type: cell-based, human; details: HCT116, 42 h of treatment
Method: as §1, §2, §3, §4

HeLa cells [1] = test: Apo-ONE homogeneous caspase-3/7 assay (apoptosis); assay type: cell-based, human; details: 42 h of treatment
Method: as §1, §2, §3, §4

[2] = test system: colorectal cell line HT29; test: WST-1 cell viability and proliferation assay; assay type: cell-based; details: HT29, 3.125 up to 50 μM, 19 h
Method: as §1
(§5) The cell proliferation was determined as a function of the metabolic activity by means of the cell proliferation reagent WST-1 (Roche, Mannheim Germany). Cells were plated in quadruplicates into the wells of 96 well plates and were allowed to attach for 24 hours. Cells were then treated with different concentrations of the compounds for 19 hours. All samples contained 0.5% DMSO. Control cells were treated with 0.5% DMSO or 20 μM doxorubicin or 1 μM staurosporine. After the treatment the WST-1 reagent was added to the cells according to the manufacturer's protocol. The absorbance was measured with the TECAN Inifinite® M200 plate reader at 450/690 nm. The blank value was subtracted from each value and the percentage of viable cells was determined compared to the DMSO treated cells.
(§6) The biological activity of the indoloquinolizines was evaluated in different cell lines by means of WST-1 assay. Cells were treated with different compound concentrations (3.125 up to 50 μM) for 19 h. In HeLa cells the (−)-enantiomers of 1-01 and 1-04 caused the most dramatic decrease in cell proliferation rate with increasing concentrations (FIG. 3). At 50 μM concentration (−)-1-01 reduced the cell proliferation rate to 60% and (−)-1-04 to 67% (FIG. 3).

osteosarcoma cells Saos2 = test: WST-1 cell viability and proliferation assay; assay type: cell-based; details: Saos2, 3.125 up to 50 μM, 19 h
Method: as §1, §5, §6

[3] = test system: prostate carcinoma cells PC3; test: WST-1 cell viability and proliferation assay; assay type: cell-based; details: PC3, 3.125 up to 50 μM, 19 h
Method: as §1, §5, §6

HeLa cells [4] = test: FACS analysis of the cell cycle (propidium iodide DNA content); assay type: cell-based, human; details: for cells in G1 phase / cells in G2/M phase: 24 h after treatment; for mitotic index: DMSO control 0.16
Method: HeLa human cervical carcinoma cell line, the human breast cancer cell line MCF7, and the human colorectal carcinoma cell line SW480 were maintained in Dulbecco's Modified Eagle's medium (DMEM, PAA, Pasching Austria). The colorectal cell line HT29 was cultured in McCoy's 5A medium (PAA, Pasching, Austria). DMEM medium was supplemented with 10% fetal calf serum, sodium pyruvate, non-essential amino acids, penicillin and streptomycin, McCoy's 5A medium was supplemented with 10% fetal calf serum, penicillin and streptomycin. All cell lines were cultured at 37° C. in a 5% CO2 humidified atmosphere. Further, fluorescent activated cell sorting (FACS) was used successfully to analyze the cell cycle and mitotic arrest under the influence of indoloquinolizines. HeLa cells were fixed and stained for FACS analysis 24 h after compound treatment. Cells were trypsinized and combined with any floating cells, pelleted, and resuspended in 1 ml PBS. Ice cold ethanol (70%) was added, and samples were incubated at −20° C. until analysis. After fixation the cells were pelleted, resuspended in 500 μl staining solution (50 μg/ml propidium iodide, 0.1 mg/ml RNase A, 0.05% Triton X-100) and incubated for 40 min at 37° C. 3 ml PBS were added; the cells were pelleted again and resuspended in 500 μl PBS. The DNA content was measured with a Becton Dickinson LSRII and analyzed with FlowJo 7.5 software. The cell cycle of compound treated HeLa cells was analyzed by fluorescence activated cell sorting (FIG. 1). […] A similar distribution is given in (−)-1-01 treated cells (FIGS. 1c and 1d); here 9% are in G1 and 38% in G2/M phase (25 μM) respectively; 8% in G1 and 40% in G2/M phase (50 μM). This means that the mitotic index is increased by more than two fold (from 0.16 to 0.38 respectively 0.40), indicating a mitotic arrest after compound treatment.

HeLa cells [5] = test: WST-1 cell viability and proliferation assay; assay type: cell-based, human; details: 19 h; for cell proliferation rate (percent of DMSO control): 50 μM; for IC50: calculated from two and three experiments respectively
Method: as §1, §5, §6

all cell lines but Saos2 = test: Apo-ONE homogeneous caspase-3/7 assay (apoptosis), summary statement; assay type: cell-based; details: all cell lines but Saos2, 42 h
Method: as §1, §2, §3, §4

Row | Compound | caspase-3/7 activity detected (HT29 cell line) | caspase-3/7 activity detected (PC3 cell line) | activation of caspase-3/7 (Saos2 cells) | activation of caspase-3/7 (HCT116 cells) | activation of caspase-3/7 (HeLa cells [1]) | reduction in cell viability [2] | decrease in the proliferation rate compared with HeLa (osteosarcoma cells Saos2) | reduction in cell viability [3] | cells in G1 phase (HeLa cells [4]; 25 μM) | cells in G2/M phase (HeLa cells [4]; 25 μM) | mitotic index (HeLa cells [4]; 25 μM) | cells in G1 phase (HeLa cells [4]; 50 μM) | cells in G2/M phase (HeLa cells [4]; 50 μM) | mitotic index (HeLa cells [4]; 50 μM) | cell proliferation rate (percent of DMSO control) (HeLa cells [5]) | IC50 (HeLa cells [5]) | impact on the apoptosis (all cell lines but Saos2) | IC50 (HeLa cells [5]; Homo sapiens)
1 | COC(=O)C1=CC(C(=O)c2ccccc2O)=CN2CCc3c([nH]c4ccccc34)C12C(=O)OC (single isomer, unassigned; (-)) [(−)-1-01, Dimethyl-3-(2-hydroxybenzoyl)-6,7,12,12b-tetrahydroindolo[2,3a]quinolizine-1,12b-dicarboxylate] | only at the 50 μM concentration | only at the 50 μM concentration | concentration dependent increase | concentration dependent increase | concentration dependent increase | only a slight reduction in cell viability | more dramatic | only a slight reduction in cell viability | 9% | 38% | 0.38 | 8% | 40% | 0.40 | 60% | 28.4 ± 0.61 µM | did not have any impact on the apoptosis | –
2 | COC(=O)C1=CC(C(=O)c2ccccc2O)=CN2CCc3c([nH]c4ccc(OC)cc34)C12C(=O)OC (single isomer, unassigned; (-)) [(−)-1-04, Dimethyl-3-(2-hydroxybenzoyl)-9-methoxy-6,7,12,12b-tetrahydro-indolo[2,3-a]quinolizine-1,12b-dicarboxylate] | only at the 50 μM concentration | only at the 50 μM concentration | concentration dependent increase | concentration dependent increase | concentration dependent increase | only a slight reduction in cell viability | more dramatic | only a slight reduction in cell viability | – | – | – | – | – | – | 67% | – | did not have any impact on the apoptosis | 15.7 ± 1.43 µM
